In US8354455B2, “Prodrugs containing novel bio-cleavable linkers” (Piramal Enterprises Limited and Apparao Satyam, priority 2004, dated 2013):
Where two headings read alike, the source gives them in different places.

Assays:
[1] = rat, in vivo, po
rats = details: rat, in vivo, po
[2] = tested on: carrageenan-induced rat paw edema; assay: Carrageenan-induced rat paw edema; format: in vivo; details: 75 mg/kg equivalent dose of aspirin, p.o.
[3] = In vitro plasma stability; format: in vitro ADME; details: rat plasma, 37° C., 30 minutes incubation, HPLC
Source text: The compounds were extracted back into acetonitrile with rigorous vortex.

Row | Structure (SMILES) | ulcers (in words) (rats; 100 mg/kg) | anti-inflammatory activity (in words) [2] | release of parent drug / conversion to salicylate (in words) [3] | ulcers (in words) (rats; 200 mg/kg) | other results
1 | CC(=O)Oc1ccccc1C(=O)OCCSSCCO[N+](=O)[O-] [I-C1-NOPD4] | none of the animals treated with the test compounds showed any signs of development of ulcers | significant activity during the first two hours | converting to the expected metabolite (salicylate) | – | salicylate release / absorption profile (in words) ([1]; both, Sprague-Dawley, 35 mg/kg): released in a sustained and controlled manner starting from 1 hour through 12 hours; Rat paw edema (% inhibition) 1 hour ([2]; Mean ± SEM, n = 6): 42.4 ± 13.3%; Rat paw edema (% inhibition) 2 hour ([2]; Mean ± SEM, n = 6): 44.9 ± 12.9%; Rat paw edema (% inhibition) 4 hour ([2]; Mean ± SEM, n = 6): 24.3 ± 7.7%; Rat paw edema (% inhibition) 6 hour ([2]; Mean ± SEM, n = 6): 8.6 ± 5.1%
2 | CC(=O)Oc1ccccc1C(=O)NC(=O)OCCSSCCO[N+](=O)[O-] [I-C1-NOPD5A] | – | negligible anti-inflammatory activity | converting to the expected metabolite (salicylate) | none of the animals treated with the test compounds showed any signs of development of ulcers | –
3 | CC(=O)Oc1ccccc1C(=O)[N-]C(=O)OCCSSCCO[N+](=O)[O-].[Na+] [I-C1-NOPD5B] | – | – | – | none of the animals treated with the test compounds showed any signs of development of ulcers | bioavailability compared with parent drug (in words) [1]: as bioavailable as its parent drug
4 | CC(=O)Oc1ccccc1C(=O)NCCSSCCO[N+](=O)[O-] [I-C1-NOPD6] | none of the animals treated with the test compounds showed any signs of development of ulcers | – | – | – | prodrug or salicylate found in plasma (in words) ([1]; 35 mg/kg): neither the prodrug nor the salicylate was found in the plasma
